US8252766B2 (CBT Development Limited, priority 2002, dated 2012)

What was measured:
[1] = test system: carrageenan (CGN) induced thermal hyperalgesia; test: carrageenan induced thermal hyperalgesia (CITH); format: in vivo
Protocol: Carrageenan (2%, 10 microliters) was administered into the right hind paw. A heat source was placed close to the treated and untreated hind paws, and the difference in the paw withdrawal latencies is shown. Spongosine was administered at the same time as carrageenan.

[2] = test system: thermal hyperalgesia caused by chronic constriction injury; test: thermal hyperalgesia caused by chronic constriction injury of the rat sciatic nerve; format: in vivo
Excerpt: After approximately two weeks the rats developed thermal hyperalgesia in the operated leg as judged by the difference in paw withdrawal latencies of the right and left paws.

[3] = blood pressure and heart rate by implantable radiotelemetry; format: in vivo, rat; settings: 0.624 mg/kg p.o., normal rats
Excerpt: An implantable radiotelemetry device was placed in the abdominal cavity of 6 rats per group. The pressure catheter of the device was inserted in the abdominal aorta and two electrodes tunnelised under the skin in a lead II position (left side of abdominal cavity/right shoulder). Individual rats were placed in their own cage on a radioreceptor (DSI) for data acquisition. A: blood pressure, B; heart rate.

[4] = test system: static allodynia; test: static allodynia in a model of neuropathic pain; format: in vivo
Protocol: Spongosine and gabapentin were administered (p.o.) in different proportions as indicated in the drawing. The total dose administered is shown on the horizontal axis, and the paw withdrawal threshold (PWT) on the vertical axis. The predicted anti-hyperalgesic effect (derived from the dose response curves obtained with each agent alone) if the effects of the two compounds are additive is shown (●). The observed effects are indicated by (▪).

[5] = test system: normal physiological nociception; test: normal physiological nociception; format: in vivo; settings: after administration of spongosine
[6] = test system: carrageenan-induced oedema; settings: rats; inhibition of carrageenan-induced oedema in a rat paw; cited from earlier work
[7] = rats; cited from earlier work

SMILES | inhibition of carrageenan induced thermal hyperalgesia (difference in paw withdrawal latencies) ([1]; 0.624 mg/kg p.o., given at the same time as carrageenan (2%, 10 microliters, right hind paw)) | efficacy relative to indomethacin ([1]; spongosine 0.624 mg/kg p.o. versus indomethacin 3 mg/kg po) | inhibition of thermal hyperalgesia (difference in paw withdrawal latencies) ([2]; 0.624 mg/kg p.o., rat, about two weeks after sciatic nerve ligation) | efficacy relative to carbamazepine ([2]; spongosine 0.624 mg/kg p.o. versus carbamazepine 100 mg/kg s.c.) | effect on blood pressure [3] | effect on heart rate [3] | inhibition of static allodynia (paw withdrawal threshold, PWT) ([4]; 1.2 mg/kg p.o., absence of naloxone) | inhibition of static allodynia (paw withdrawal threshold, PWT) ([4]; 1.2 mg/kg p.o., presence of naloxone 1 mg/kg s.c.) | inhibition of static allodynia (paw withdrawal threshold, PWT) ([4]; p.o., dose response, Example 5) | analgesic effect on normal physiological nociception [5] | anti-inflammatory activity [6] | hypotensive activity [7] | hypothermic activity [7] | muscle relaxant activity [7]
COc1nc(N)c2ncn([C@@H]3O[C@H](CO)[C@@H](O)[C@H]3O)c2n1 [Spongosine, 2-methoxyadenosine] | inhibits | comparable efficacy | inhibits | as, or more, effective | no significant effect | no significant effect | inhibits | inhibits | inhibit | No analgesic effect | anti-inflammatory activity | hypotensive | hypothermic | muscle relaxant
NCC1(CC(=O)O)CCCCC1 [gabapentin, reference compound] | – | – | – | – | – | – | – | – | inhibit | – | – | – | – | –
